As a reminder, the DC50 is the concentration at which degradation of the target reaches its halfway point.

This passage reports IC50 and DC50 results from paper PMC11513893, “Discovery of Oral Degraders of the ROS1 Fusion Protein with Potent Activity against Secondary Resistance Mutations” (Journal of Medicinal Chemistry, 2024).

Values joined by “and” are separate entries in the source; they are usually repeats but may differ in a detail not shown here. Identical values can stand only once.

The target of one assay is CHEK2 (Homo sapiens, UniProt O96017). Put plainly: Kinase assay. It is filed as biochemical. The following applies: average of duplicate measurements.
The test system of the next assay is ROS1 (G2032R). Description: Degradation assay (Western blot in treated cells). It is filed as cell-based. The following applies: average of duplicate measurements. Here is the method: (§1) However, the degradation selectivity of 9o often contrasts with its kinase binding selectivity as determined in cells treated with 9o where the kinase level was measurable by Western blot analysis. […] For example, FLT3, CHEK2, and FES, all with kinase binding at <10 nM, were only moderately or minimally degraded, if at all (Table 9).
(§2) Protein levels were analyzed using a WES instrument according to the WES User Guide from ProteinSimple in duplicate experiments. The samples were mixed with the fluorescent 5 master mix (ProteinSimple) and then heated at 95 °C for 5 min. Boiled samples, biotinylated protein ladder, antibody diluent, Streptavidin-HRP, primary antibodies, ProteinSimple horseradish peroxidase conjugated antirabbit or antimouse secondary antibodies, luminol-peroxide, and wash buffer were loaded into the WES plate (Wes 12–230 kDa Prefilled Plates with Split Buffer, ProteinSimple). The plates and capillary cartridges were loaded into the WES instrument, and protein separation, antibody incubation, and imaging were performed according to manufacturer’s instructions. Compass software (ProteinSimple) was used to acquire the data and to generate the virtual blot image reconstruction and chemiluminescence signal intensity electropherograms. […] Protein levels are expressed as the AUC of the peak chemiluminescence intensity. […]
Background: Immunoblotting shows a protein as a band on a membrane.

For a further assay, the target named is NUAK1 (Homo sapiens, UniProt O60285). Description: Kinase assay. The following applies: average of duplicate measurements. It is filed as biochemical.
The subject of assay [1] is Ba/F3 ROS1 L2086F, S1986F/L2086F, S1986F/G2032R/L2086F. Description: Antiproliferation assay, resistant mutations involving L2086F. It is filed as cell-based. The note with it: Mus musculus, BaF3; Ba/F3 cells, summary of Table 6; read-out: potency against resistant mutations involving L2086F, S1986F/L2086F, S1986F/G2032R/L2086F. Here is the method:
(§3) To assess the 72 h effect of drug treatment on cell proliferation, 2000 to 3000 cells were plated in replicates of three in 96-well plates. The plates were placed in an incubator at 37 °C, 5% CO2 for 72 h. Following drug treatments, the cells were incubated with the Alamar Blue Assay reagent (BioRad), 5 μL each well for 4 h at 37 °C and 5% CO2. Luminescence was measured on a multiplate reader and analyzed. […] IC50 values were determined using a nonlinear regression model with a sigmoidal dose response in GraphPad. The data were collected based on triplicate experiments, and presented as mean ± SD.

In assay [2] the test system is Ba/F3 ROS1 (CD74) G2032R-L2086F. Put plainly: Antiproliferation assay. It is filed as cell-based. The note with it: Mus musculus, BaF3; Ba/F3 cell line. Here is the method: (§4) Ba/F3 immortalized murine bone marrow–derived pro-B cells were obtained from Creative Biogene (Shirley, NY) and cultured in RPMI supplemented with 10% FBS and IL3 (0.5 ng/mL). Ba/F3 cells expressing ROS1 variants were maintained in RPMI supplemented with 10% FBS and puromycin (0.7 mg/mL). Crizotinib, ceritinib, brigatinib, repotrectinib, and lorlatinib were purchased from MedChem Express. Each compound was dissolved in DMSO and serially diluted in RPMI for cell culture experiments.
as §3
(§5) cDNA encoding CD74-ROS1 or mutant CD74–ROS1 was cloned into retroviral expression vectors (pLenti), and viruses were generated in HEK293T cells by transfecting with packaging plasmids. The resulting virus was used to infect Ba/F3 cells. After retroviral infection, Ba/F3 cells were selected by incubation with puromycin (0.7 mg/mL) for 2 weeks. For Ba/F3 cells infected by the CD74–ROS1 variants, IL3 was withdrawn from the culture medium at least 2 weeks before the experiments.

For assay [3], the system named is Ba/F3 ROS1 (CD74) S1986F-L2086F. Description: Antiproliferation assay. It is filed as cell-based. The note with it: Mus musculus, BaF3; Ba/F3 cell line. How it is done:
as §4, §3, §5

Assay [4] has as its system Ba/F3 ROS1 (CD74) S1986F-G2032R. Put plainly: Antiproliferation assay. The note with it: Mus musculus, BaF3; Ba/F3 cell line. Format: cell-based. How it is done: as §4, §3, §5
The subject of another assay is Ba/F3 ROS1 (CD74) G2032R. Description: Antiproliferation assay. It is filed as cell-based. The note with it: Mus musculus, BaF3; Ba/F3 cell line. Here is the method: as §4, §3, §5
Another assay has as its system Ba/F3 ROS1 (CD74) L2086F. Put plainly: Antiproliferation assay. Format: cell-based. The following applies: Mus musculus, BaF3; Ba/F3 cell line. How it is done:
as §4, §3, §5

In assay [5] the test system is Ba/F3 ROS1 (CD74) S1986F-G2032R-L2086F. Put plainly: Antiproliferation assay. It is filed as cell-based. The note with it: Mus musculus, BaF3; Ba/F3 cell line. How it is done:
as §4, §3, §5

Assay [6] relates to Ba/F3 ROS1 (SLC34A2) V2098I. Put plainly: Antiproliferation assay. The note with it: Mus musculus, BaF3; Ba/F3 cell line. It is filed as cell-based. How it is done: (§6) Ba/F3 immortalized murine bone marrow–derived pro-B cells were obtained from Creative Biogene (Shirley, NY) and cultured in RPMI supplemented with 10% FBS and IL3 (0.5 ng/mL). Ba/F3 cells expressing ROS1 variants were maintained in RPMI supplemented with 10% FBS and puromycin (0.7 mg/mL). […] Each compound was dissolved in DMSO and serially diluted in RPMI for cell culture experiments.
as §3

In assay [7] the test system is Ba/F3 ROS1 (SLC34A2) G2032R-F2075 V. Put plainly: Antiproliferation assay. Format: cell-based. The following applies: Mus musculus, BaF3; Ba/F3 cell line. How it is done: as §6, §3
Assay [8] concerns Ba/F3 ROS1 (SLC34A2) G2032R. Put plainly: Antiproliferation assay. Format: cell-based. The note with it: Mus musculus, BaF3; Ba/F3 cell line. Here is the method:
as §6, §3

Assay [9] concerns Ba/F3 ROS1 (SLC34A2) L2026M. Description: Antiproliferation assay. It is filed as cell-based. The note with it: Mus musculus, BaF3; Ba/F3 cell line. How it is done: as §6, §3
In another assay the test system is Ba/F3 ROS1 (SLC34A2). Description: Antiproliferation assay. Format: cell-based. The note with it: Mus musculus, BaF3; Ba/F3 cell line. Here is the method: as §6, §3
The test system of assay [10] is Ba/F3 ROS1 (SLC34A2) D2033N. Put plainly: Antiproliferation assay. The following applies: Mus musculus, BaF3; Ba/F3 cell line. Format: cell-based. Here is the method: as §6, §3
Another assay concerns ROS1 (L2086F). Description: Degradation assay. Format: cell-based. The following applies: average of duplicate measurements. How it is done: as §1, §2

Sequence of CHEK2 (O96017 whole entry, species assumed): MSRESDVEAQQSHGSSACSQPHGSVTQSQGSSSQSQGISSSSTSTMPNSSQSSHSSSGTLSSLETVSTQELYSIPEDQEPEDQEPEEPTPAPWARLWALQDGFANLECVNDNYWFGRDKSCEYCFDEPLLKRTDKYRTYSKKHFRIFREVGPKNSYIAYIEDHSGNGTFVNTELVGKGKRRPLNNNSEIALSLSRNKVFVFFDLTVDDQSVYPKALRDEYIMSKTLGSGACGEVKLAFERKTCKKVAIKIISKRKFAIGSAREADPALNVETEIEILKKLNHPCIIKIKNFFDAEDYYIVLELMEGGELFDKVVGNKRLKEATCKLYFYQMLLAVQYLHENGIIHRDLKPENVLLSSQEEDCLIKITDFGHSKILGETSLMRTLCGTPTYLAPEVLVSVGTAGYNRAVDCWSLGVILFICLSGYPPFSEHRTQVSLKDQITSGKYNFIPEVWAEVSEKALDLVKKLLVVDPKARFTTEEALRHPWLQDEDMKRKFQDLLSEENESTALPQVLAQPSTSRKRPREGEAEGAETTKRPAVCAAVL
Sequence of NUAK1 (O60285 whole entry, species assumed): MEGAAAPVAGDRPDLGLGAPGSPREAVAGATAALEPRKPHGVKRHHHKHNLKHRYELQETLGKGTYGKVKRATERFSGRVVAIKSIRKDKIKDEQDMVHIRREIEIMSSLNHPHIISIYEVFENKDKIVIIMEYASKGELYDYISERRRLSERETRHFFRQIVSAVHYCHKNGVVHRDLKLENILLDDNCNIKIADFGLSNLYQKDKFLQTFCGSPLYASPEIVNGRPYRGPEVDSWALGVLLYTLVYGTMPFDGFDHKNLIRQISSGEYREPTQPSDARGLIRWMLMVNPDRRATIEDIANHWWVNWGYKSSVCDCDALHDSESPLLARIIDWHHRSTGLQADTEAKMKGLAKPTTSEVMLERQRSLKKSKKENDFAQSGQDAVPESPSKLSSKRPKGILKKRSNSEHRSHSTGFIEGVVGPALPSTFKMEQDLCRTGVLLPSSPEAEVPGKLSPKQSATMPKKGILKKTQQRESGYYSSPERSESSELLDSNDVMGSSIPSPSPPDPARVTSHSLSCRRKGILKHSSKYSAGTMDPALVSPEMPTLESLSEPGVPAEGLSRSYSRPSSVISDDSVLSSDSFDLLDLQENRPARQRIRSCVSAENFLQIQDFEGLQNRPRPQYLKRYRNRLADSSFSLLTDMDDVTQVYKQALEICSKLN

In the case of `COc1cc(N2CCC(N3CCN(CC4CCN(c5ccc6c(c5)CN(C5CCC(=O)NC5=O)C6=O)CC4)CC3)CC2)ccc1Nc1ncc(Cl)c(Nc2ccccc2P(C)(C)=O)n1` (centres unmarked) [9o, 3-(5-(4-((4-(1-(4-((5-Chloro-4-((2-(dimethylphosphoryl)phenyl)amino)pyrimidin-2-yl)amino)-3-methoxyphenyl)piperidin-4-yl)piperazin-1-yl)methyl)piperidin-1-yl)-1-oxoisoindolin-2-yl)piperidine-2,6-dione], the IC50 against CHEK2 is < 10 nM and 3.6 nM; on NUAK1, 47 nM; in [1] it was 1.9 to 66 nM; in assay [2], 66.2 ± 18.2 nM; in assay [3], 1.9 ± 0.4 nM; in assay [4], 49.5 ± 10.2 nM. The IC50 was 7.7 ± 2 nM in the assay on Ba/F3 ROS1 (CD74) G2032R; 6.9 ± 1.7 nM in the assay on Ba/F3 ROS1 (CD74) L2086F; 37.8 ± 4.4 nM in [5]; 4.6 ± 2.1 nM in assay [6]; 5.6 ± 0.6 nM in assay [7]; 6.3 ± 1.1 nM in assay [8]. Also, the IC50 in assay [9] was determined as 2.5 ± 0.6 nM; in the assay on Ba/F3 ROS1 (SLC34A2), 1.1 ± 0.4 nM; in [10] it was 9.7 ± 2.6 nM. Moreover, the 50% degradation concentration (DC50) in the assay on ROS1 (G2032R) was found to be 13.2 nM; in the assay on ROS1 (L2086F), 5.4 nM.
